Read-outs that look alike come from different tables or passages of the source.
How the values were obtained:
[1] = cited from earlier work
[2] = cited from earlier work; remark: listed apart in the source
[3] = test system: cell membrane; conditions: Xu & McLeod 2001; cited from earlier work
[4] = molecular target: WT αHL pore (Staphylococcus aureus, UniProt P09616); type: biochemical, staphylococcal; conditions: pH 8
[5] = molecular target: αHL (Staphylococcus aureus, UniProt P09616); conditions: pH 7; cited from earlier work
Sequence of αHL (P09616 27-319 limits assumed): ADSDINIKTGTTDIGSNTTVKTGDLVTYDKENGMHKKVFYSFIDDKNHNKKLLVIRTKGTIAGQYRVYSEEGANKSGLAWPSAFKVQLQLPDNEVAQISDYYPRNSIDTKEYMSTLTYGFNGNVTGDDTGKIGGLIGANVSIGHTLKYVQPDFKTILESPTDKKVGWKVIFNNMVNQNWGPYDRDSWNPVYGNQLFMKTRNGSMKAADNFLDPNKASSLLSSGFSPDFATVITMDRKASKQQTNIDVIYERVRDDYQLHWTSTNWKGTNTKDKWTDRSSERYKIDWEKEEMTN

Sequence of WT αHL pore (P09616 27-319 limits assumed): as above

O=C(O)CN(CCN(CC(=O)O)CC(=O)O)CC(=O)O [EDTA]
koff for Ca^2+ dissociation ([1]; Naraghi 1997, Johnson et al. 1999): < 1 s⁻¹

CC/C(=C(\c1ccc(O)cc1)c1ccc(OCCN(C)C)cc1)c1ccc(C(C)C)cc1 [Miproxifene, miproxifene]
water solubility less than miproxifene phosphate ([2]; relative to miproxifene phosphate): 1,000 times

COc1cccc2c1C(=O)c1c(O)c3c(c(O)c1C2=O)C[C@@](O)(C(=O)CO)C[C@@H]3O[C@H]1C[C@H](N)[C@H](O)[C@H](C)O1 [doxorubicin]
permeability to the cell membrane [3]: able to access the cytosol and is

OC[C@H]1O[C@@H]2O[C@H]3[C@H](O)[C@@H](O)[C@@H](O[C@H]4[C@H](O)[C@@H](O)[C@@H](O[C@H]5[C@H](O)[C@@H](O)[C@@H](O[C@H]6[C@H](O)[C@@H](O)[C@@H](O[C@H]7[C@H](O)[C@@H](O)[C@@H](O[C@H]8[C@H](O)[C@@H](O)[C@@H](O[C@H]9[C@H](O)[C@@H](O)[C@@H](O[C@H]1[C@H](O)[C@H]2O)O[C@@H]9CO)O[C@@H]8CO)O[C@@H]7CO)O[C@@H]6CO)O[C@@H]5CO)O[C@@H]4CO)O[C@@H]3CO [γCD, γ-cyclodextrin]
current blockade (blocking) amplitude, mean±s.d. [4]: 63.7±2.0%
dissociation rate, mean±s.d. [4]: 4.0 ± 0.6 s⁻¹
blocking amplitude [5]: ~60%
dissociation rate [5]: 2.0 s⁻¹

fluo-4
koff for Ca^2+ dissociation [1]: ~400 s⁻¹

miproxifene phosphate
aqueous solubility greater than miproxifene ([2]; relative to miproxifene, Rautio et al. 2008): 1,000 fold

From patent US11998642B2 (priority 2011, dated 2024)
